Measurements reported in patent publication US7893077B2, “Bisaryl-sulfonamides” (Amgen Inc., priority 2004, dated 2011).

These compounds were tested against T1, PPARγ (Homo sapiens, UniProt P37231) (assay: PPARγ ligand binding assay utilizing [3H]-BRL 49653 as the radioligand (filtration)). Details: concentration required to reduce by 50% the specific binding of [3H]-BRL 49653.
T1 construct: made in house
T1 sequence (P37231 1-505): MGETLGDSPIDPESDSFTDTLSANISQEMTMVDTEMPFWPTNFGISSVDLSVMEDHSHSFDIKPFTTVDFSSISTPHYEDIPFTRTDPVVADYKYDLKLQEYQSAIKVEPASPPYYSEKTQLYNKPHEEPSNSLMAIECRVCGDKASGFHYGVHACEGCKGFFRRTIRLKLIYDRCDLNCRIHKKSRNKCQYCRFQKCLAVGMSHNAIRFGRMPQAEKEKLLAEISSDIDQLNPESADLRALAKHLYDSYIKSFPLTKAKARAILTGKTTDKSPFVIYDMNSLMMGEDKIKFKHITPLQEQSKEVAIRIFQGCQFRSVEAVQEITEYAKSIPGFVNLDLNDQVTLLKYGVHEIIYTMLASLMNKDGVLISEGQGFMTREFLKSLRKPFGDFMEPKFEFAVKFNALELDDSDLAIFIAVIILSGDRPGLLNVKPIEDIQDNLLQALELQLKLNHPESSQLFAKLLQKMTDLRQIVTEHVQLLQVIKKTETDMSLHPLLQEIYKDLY
Method in brief: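 Displacement of 10 nM [3H]-BRL 49653 from PPARγ-GST fusion protein in Tris-HCl pH 8.0 buffer with KCl, DTT, BSA and NP-40, 15 min incubation, then glutathione-bead capture for 1 h. Bound radioactivity counted after filtration washes; IC50 is concentration giving 50% loss of specific binding, reported in ranges.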

`CCCCc1cc(NS(=O)(=O)c2ccc(C(F)(F)F)cc2Cl)nnc1Sc1ccc(S(=O)(=O)C2CCCC2)cc1` [Compound 134, 3-(2′-chloro-4′-trifluoromethyl)phenylsulfonylamino-5-n-butyl-6-(4″-cyclopentanesulfonyl)phenylthiopyridazine] and `Cc1cc(NS(=O)(=O)c2ccc(C(F)(F)F)cc2Cl)nnc1Sc1ccc(S(=O)(=O)N2CCCCC2)cc1` [Compound 136, 2-Chloro-N-{5-methyl-6-[4-(piperidine-1-sulfonyl) -phenylsulfanyl]-pyridazin-3-yl}-4-trifluoromethyl-benzenesulfonamide] cannot be ordered by IC50: less than 1000 nM for the first, less than 1000 nM for the second.

`Cc1cc(Sc2ccc(S(=O)(=O)N3CCCCC3)cc2)nnc1NS(=O)(=O)c1ccc(C(F)(F)F)cc1Cl` [Compound 137, 2-Chloro-N-{4-methyl-6-[4-(piperidine-1-sulfonyl) -phenylsulfanyl]-pyridazin-3-yl}-4-trifluoromethyl-benzenesulfonamide] and `Cc1cc(NS(=O)(=O)c2ccc(C(F)(F)F)cc2Cl)ncc1Sc1ccc(S(=O)(=O)N2CCCCC2)cc1` [Compound 64, 2-Chloro-N-{4-methyl-5-[4-(piperidine-1-sulfonyl) -phenylsulfanyl]-pyridin-2-yl}-4-trifluoromethyl-benzenesulfonamide] cannot be ordered by IC50: less than 10000 nM for the first, less than 1000 nM for the second.

`O=S(=O)(Nc1ccc(Sc2ccc(S(=O)(=O)N3CCOCC3)cc2)c(C(F)(F)F)n1)c1ccc(C(F)(F)F)cc1Cl` [Compound 109, 2-Chloro-N-{5-[4-(morpholine-4-sulfonyl)-phenylsulfanyl]-6-trifluoromethyl-pyridin-2-yl}-4-trifluoromethyl-benzenesulfonamide] and `O=S(=O)(Nc1ccc(Sc2ccc(S(=O)(=O)N3CCOCC3)cc2)c(C(F)(F)F)n1)c1ccc(Cl)cc1Cl` [Compound 108, 2,4-Dichloro-N-{5-[4-(morpholine-4-sulfonyl)-phenylsulfanyl]-6-trifluoromethyl-pyridin-2-yl}-benzenesulfonamide] cannot be ordered by IC50: less than 10000 nM for the first, less than 10000 nM for the second.

`CC(C)Nc1nc(NS(=O)(=O)c2ccc(Cl)cc2Cl)ncc1Sc1ccc(S(=O)(=O)N2CCCCC2)cc1` [Compound 17, 2,4-Dichloro-N-{4-isopropylamino-5-[4-(piperidine-1-sulfonyl)-phenylsulfanyl]-pyrimidin-2-yl}-benzenesulfonamide] and `CC(C)CCNc1nc(NS(=O)(=O)c2ccc(Cl)cc2Cl)ncc1Sc1ccc(S(=O)(=O)N2CCCCC2)cc1` [Compound 21, 2,4-Dichloro-N-{4-(3-methyl-butylamino)-5-[4-(piperidine-1-sulfonyl)-phenylsulfanyl]-pyrimidin-2-yl}-benzenesulfonamide] cannot be ordered by IC50: less than 10000 nM for the first, less than 10000 nM for the second.

`Cc1cc(NS(=O)(=O)c2ccc(Cl)cc2Cl)ncc1Sc1ccc(S(=O)(=O)N2CCCCC2)cc1` [Compound 63, 2,4-Dichloro-N-{4-methyl-5-[4-(piperidine-1-sulfonyl) -phenylsulfanyl]-pyridin-2-yl}-benzenesulfonamide] and `Cc1cc(S(=O)(=O)Nc2cc(C)c(Sc3ccc(S(=O)(=O)N4CCCCC4)cc3)cn2)c(Cl)cc1Cl` [Compound 62, 2,4-Dichloro-5-methyl-N-{4-methyl-5-[4-(piperidine-1-sulfonyl)-phenylsulfanyl]-pyridin-2-yl}-benzenesulfonamide] cannot be ordered by IC50: less than 1000 nM for the first, less than 1000 nM for the second.

`O=S(=O)(Nc1ncc(Sc2ccc(S(=O)(=O)N3CCCCC3)cc2)c(NCC2CC2)n1)c1ccc(Cl)cc1Cl` [Compound 19, 2,4-Dichloro-N-{4-(cyclopropylmethyl-amino)-5-[4-(piperidine-1-sulfonyl)-phenylsulfanyl]-pyrimidin-2-yl}-benzenesulfonamide] and `Cc1nc(NS(=O)(=O)c2ccc(Cl)cc2Cl)ncc1Sc1ccc(S(=O)(=O)N2CCCCC2)cc1` [Compound 49, 2,4-Dichloro-N-{4-methyl-5-[4-(piperidine-1-sulfonyl) -phenylsulfanyl]-pyrimidin-2-yl}-benzenesulfonamide] cannot be ordered by IC50: less than 1000 nM for the first, less than 10000 nM for the second.

`COC(=O)c1nc(NS(=O)(=O)c2ccc(Cl)cc2Cl)ccc1Sc1ccc(S(=O)(=O)N2CCOCC2)cc1` [Compound 76, 6-(2,4-Dichloro-benzenesulfonylamino)-3-[4-(morpholine-4-sulfonyl)-phenylsulfanyl]-pyridine-2-carboxylic acid methyl ester] and `CC(C)CC(=O)c1nc(NS(=O)(=O)c2ccc(Cl)cc2Cl)ccc1Sc1ccc(S(=O)(=O)N2CCCCC2)cc1` [Compound 83, 2,4-Dichloro-N-{6-(3-methyl-butyryl)-5-[4-(piperidine-1-sulfonyl)-phenylsulfanyl]-pyridin-2-yl}-benzenesulfonamide] cannot be ordered by IC50: less than 1000 nM for the first, less than 1000 nM for the second.

`CCCOc1nc(NS(=O)(=O)c2ccc(Cl)cc2Cl)ncc1Sc1ccc(S(=O)(=O)N2CCCCC2)cc1` [Compound 28, 2,4-Dichloro-N-{5-[4-(piperidine-1-sulfonyl)-phenylsulfanyl]-4-propoxy-pyrimidin-2-yl}-benzenesulfonamide] and `CCC(CC)Nc1nc(NS(=O)(=O)c2ccc(Cl)cc2Cl)ncc1Sc1ccc(S(=O)(=O)N2CCCCC2)cc1` [Compound 18, 2,4-Dichloro-N-{4-(1-ethyl-propylamino)-5-[4-(piperidine-1-sulfonyl)-phenylsulfanyl]-pyrimidin-2-yl}-benzenesulfonamide] cannot be ordered by IC50: less than 1000 nM for the first, less than 30000 nM for the second.

`Cc1nc(NS(=O)(=O)c2ccc(Cl)cc2Cl)ncc1Oc1ccc(S(=O)(=O)N2CCOCC2)cc1` [Compound 54, 2,4-Dichloro-N-{4-methyl-5-[4-(morpholine-4-sulfonyl) -phenoxy]-pyrimidin-2-yl}-benzenesulfonamide] and `Cc1nc(NS(=O)(=O)c2ccc(C(F)(F)F)cc2Cl)ncc1Oc1ccc(S(=O)(=O)N2CCOCC2)cc1` [Compound 55, 2-Chloro-N-{4-methyl-5-[4-(morpholine-4-sulfonyl) -phenoxy]-pyrimidin-2-yl}-4-trifluoromethyl-benzenesulfonamide] cannot be ordered by IC50: less than 30000 nM for the first, less than 10000 nM for the second.

`Cc1cc(S(=O)(=O)Nc2ccc(Sc3ccc(S(=O)(=O)N4CCCCC4)cc3)nn2)c(Cl)cc1Cl` [Compound 140, 2,4-Dichloro-5-methyl-N-{6-[4-(piperidine-1-sulfonyl) -phenylsulfanyl]-pyridazin-3-yl}-benzenesulfonamide] and `Cc1nc(NS(=O)(=O)c2ccc(C(F)(F)F)cc2Cl)ccc1Sc1ccc(S(=O)(=O)N2CCCCC2)cc1` [Compound 66, 2-Chloro-N-{6-methyl-5-[4-(piperidine-1-sulfonyl) -phenylsulfanyl]-pyridin-2-yl}-4-trifluoromethyl-benzenesulfonamide] cannot be ordered by IC50: less than 1000 nM for the first, less than 1000 nM for the second.

`O=C(c1nc(NS(=O)(=O)c2ccc(Cl)cc2Cl)ccc1Sc1ccc(S(=O)(=O)C2CCCC2)cc1)C1CC1` [Compound 113, 2,4-Dichloro-N-[5-(4-cyclopentanesulfonyl-phenylsulfanyl)-6-cyclopropanecarbonyl-pyridin-2-yl]-benzenesulfonamide] and `CCCC(=O)c1nc(NS(=O)(=O)c2ccc(Cl)cc2Cl)ccc1Sc1ccc(S(=O)(=O)C2CCCC2)cc1` [Compound 112, N-[6-Butyryl-5-(4-cyclopentanesulfonyl-phenylsulfanyl)-pyridin-2-yl]-2,4-dichloro-benzenesulfonamide] cannot be ordered by IC50: less than 1000 nM for the first, less than 1000 nM for the second.
